Measurements: patent EP0412877A1, “Oral galenic form to improve bioavailability” (priority 1989, dated 1991)
Read-outs that look alike come from different tables or passages of the source.

What was measured:
[1] = In vitro dissolution kinetics in distilled water and intestinal juice; assay type: physicochemical; settings: eau distillée and suc intestinal
[2] = Dissolution kinetics of dihydropyridines (figure 7); assay type: physicochemical; settings: Nifédipine à l'état brut, oxodipine à l'état de coprécipité, without PROSOBEL
Text: On peut en conclure que le PROSOBEL, de façon très inattendue pour l'homme de métier, ralentit la dissolution en milieu aqueux, et permet l'obtention de formes pharmaceutiques originales et nouvelles, de dihydropyridines à biodisponibilité contrôlée.

[3] = human, in vivo, 0 min
Protocol: (§1) Des comprimés selon l'exemple 3, dosés à 15, 20 et 25mg d'oxodipine, ont été administrés à 6 volontaires sains.

[4] = human, in vivo
[5] = Solubility in water (stated in words); settings: result in words
[6] = Plasma concentrations after single oral administration of oxodipine forms to 6 healthy subjects; settings: human, 20 mg
Protocol: as §1

For `CCOC(=O)C1=C(C)NC(C)=C(C(=O)OC)C1c1cccc2c1OCO2` (centres unmarked) [Poudre 20mg, 1,4-dihydro 4-(2′,3′-méthylènedioxyphényl) 3,5-pyridine dicarboxylatede méthyle et d'éthyle], the “cinétique de dissolution in vitro” value [1] was “lente et limitée”, the cinétiques de dissolution [2] was “très rapides” and the Concentration [3] was 0,0 ng/ml. The “% DE DOSE ENTRES DANS L'ORGANISME APRES ABSORPTION ET PASSAGE HEPATIQUE” value ([4]; 10.2 min) was 2,5%, the “% DE DOSE ENTRES DANS L'ORGANISME APRES ABSORPTION ET PASSAGE HEPATIQUE” value ([4]; 19.8 min) was 1,6% and the “% DE DOSE ENTRES DANS L'ORGANISME APRES ABSORPTION ET PASSAGE HEPATIQUE” value ([4]; 30 min) was 4,5%. For the same molecule, the “% DE DOSE ENTRES DANS L'ORGANISME APRES ABSORPTION ET PASSAGE HEPATIQUE” value ([4]; 39.6 min) was 6,6%, the “% DE DOSE ENTRES DANS L'ORGANISME APRES ABSORPTION ET PASSAGE HEPATIQUE” value ([4]; 49.8 min) was 7,0% and the “% DE DOSE ENTRES DANS L'ORGANISME APRES ABSORPTION ET PASSAGE HEPATIQUE” value ([4]; 60 min) was 9,3%. For the same molecule, the “% DE DOSE ENTRES DANS L'ORGANISME APRES ABSORPTION ET PASSAGE HEPATIQUE” value ([4]; 75 min) was 11%, the “% DE DOSE ENTRES DANS L'ORGANISME APRES ABSORPTION ET PASSAGE HEPATIQUE” value ([4]; 90 min) was 11,4% and the “% DE DOSE ENTRES DANS L'ORGANISME APRES ABSORPTION ET PASSAGE HEPATIQUE” value ([4]; 120 min) was 14,0%. For the same molecule, the “% DE DOSE ENTRES DANS L'ORGANISME APRES ABSORPTION ET PASSAGE HEPATIQUE” value ([4]; 180 min) was 16,6%, the “% DE DOSE ENTRES DANS L'ORGANISME APRES ABSORPTION ET PASSAGE HEPATIQUE” value ([4]; 240 min) was 18% and the “% DE DOSE ENTRES DANS L'ORGANISME APRES ABSORPTION ET PASSAGE HEPATIQUE” value ([4]; 360 min) was 19,8%. The “% DE DOSE ENTRES DANS L'ORGANISME APRES ABSORPTION ET PASSAGE HEPATIQUE” value ([4]; 480 min) was 21,2%, the “% DE DOSE ENTRES DANS L'ORGANISME APRES ABSORPTION ET PASSAGE HEPATIQUE” value ([4]; 600 min) was 22,6% and the “% DE DOSE ENTRES DANS L'ORGANISME APRES ABSORPTION ET PASSAGE HEPATIQUE” value ([4]; 720 min) was 23,8%. The biodisponibilité ([4]; 720 min) was 31%, the “BIODIOPONIBILITE RELATIVE PAR RAPPORT A LA SOLUTION” value ([4]; po) was 31% and the “solubilité dans l'eau” value [5] was “faible”. It also gave a concentration at 0.17 h [6] of 1.2 ng/mL, a concentration at 0.33 h [6] of 1.4 ng/mL and a concentration at 0.5 h [6] of 2.7 ng/mL. It also gave a concentration at 0.66 h [6] of 4.2 ng/mL, a concentration at 0.83 h [6] of 5 ng/mL and a concentration at 1 h [6] of 6 ng/mL. For the same molecule, the concentration at 1.25 h [6] was 6.8 ng/mL, the concentration at 1.5 h [6] was 6.5 ng/mL and the concentration at 2 h [6] was 6.2 ng/mL. For the same molecule, the concentration at 3 h [6] was 5.1 ng/mL, the concentration at 4 h [6] was 4 ng/mL and the concentration at 6 h [6] was 2.4 ng/mL. The concentration at 8 h [6] was 1.6 ng/mL, the concentration at 10 h [6] was 1.4 ng/mL and the concentration at 12 h [6] was 1.2 ng/mL. For the same molecule, the concentration at 14 h [6] was 1 ng/mL and the concentration at 24 h [6] was 1.2 ng/mL.
